Measurements: patent US9951040B2, “1,3,5 -triazine based PI3K inhibitors as anticancer agents and a process for the preparation thereof” (Council of Scientific and Industrial Research, priority 2014, dated 2018)
Like-named read-outs stand apart in the source and are kept apart here.

Assays:
PI3K alpha = PI3K alpha (Homo sapiens, UniProt P42336); test: PI3K-α assay (ADP-Glo enzyme inhibition); format: biochemical; conditions: at 500 nm
Experimental: Compounds were evaluated for their ability to inhibit class I PI3-kinase enzyme alpha as given below. PI3K-α Assay: PI3K alpha (diluted in 12.5 mM Glycine-NaOH (pH 8.5), 50 mM KCl, 2.5 mM MgCl2, 1 mM DTT, 0.05% CHAPS) is assayed in total volume of 20 ul containing 12.5 mM glycine-NaOH (pH 8.5), 50 mM KCl, 2.5 mM MgCl2, 1 mM DTT, 0.05% CHAPS, 0.01 mM ATP and 0.05 mM diC8 PIP2. The enzyme is assayed for 80 min after which 20 ul of ADP-Glo reagent is added. After a further incubation of 40 min, 40 ul of Kinase Detection Buffer is added. The assays are incubated for 40 min and then read on PerkinElmer Envision for 1 sec/well.

MDA-MB231 Cell line = test: MTT cell proliferation assay, MDA-MB231; format: cell-based; conditions: Homo sapiens, MDA-MB-231, 120 h, 5 days
Experimental: (§1) Human breast cancer cell lines MDAMB231, MFC-7 and human prostate carcinoma cell line PC-3 were obtained from European Collection of Cell Cultures (ECACC). Cells were grown in […] medium supplemented with 10% fetal bovine serum (FBS), penicillin (100 units/ml), streptomycin (100 μg/ml), L-glutamine (0.3 mg/ml), sodium pyruvate ([…]), and NaHCO3 (2 mg/ml). Cells were grown in CO2 incubator (Thermocon Electron Corporation, USA) at 37° C. in an atmosphere of 95% air and 5% CO2 with 98% humidity. Different molecules were dissolved in DMSO and were delivered to cell cultures in complete medium.
(§2) MTT assay was done to determine the viability of the cells and was done as described previously (Kumar et al, 2013). Briefly, 6×10^3 were seeded in 96 well plates and were treated with different concentrations of different molecules for 5 days. 20 μl of MTT dye (2.5 mg/ml) was added 3 h before the termination of the experiment. Formazen crystals were dissolved in 150 μl of DMSO and OD was measured at 570 nm.

MCF-7 Cell line = test: MTT cell proliferation assay, MCF-7; format: cell-based; conditions: Homo sapiens, MCF7, 120 h, 5 days
Experimental: as §1, §2

PC-3 Cell line = test: MTT cell proliferation assay, PC-3; format: cell-based; conditions: Homo sapiens, PC-3, 120 h, 5 days
Experimental: as §1, §2

[1] = read-out: In vitro PI3K α % of inhibition
[2] = read-out: inhibition against PI3K alpha

Sequence of PI3K alpha (P42336 whole entry, species assumed): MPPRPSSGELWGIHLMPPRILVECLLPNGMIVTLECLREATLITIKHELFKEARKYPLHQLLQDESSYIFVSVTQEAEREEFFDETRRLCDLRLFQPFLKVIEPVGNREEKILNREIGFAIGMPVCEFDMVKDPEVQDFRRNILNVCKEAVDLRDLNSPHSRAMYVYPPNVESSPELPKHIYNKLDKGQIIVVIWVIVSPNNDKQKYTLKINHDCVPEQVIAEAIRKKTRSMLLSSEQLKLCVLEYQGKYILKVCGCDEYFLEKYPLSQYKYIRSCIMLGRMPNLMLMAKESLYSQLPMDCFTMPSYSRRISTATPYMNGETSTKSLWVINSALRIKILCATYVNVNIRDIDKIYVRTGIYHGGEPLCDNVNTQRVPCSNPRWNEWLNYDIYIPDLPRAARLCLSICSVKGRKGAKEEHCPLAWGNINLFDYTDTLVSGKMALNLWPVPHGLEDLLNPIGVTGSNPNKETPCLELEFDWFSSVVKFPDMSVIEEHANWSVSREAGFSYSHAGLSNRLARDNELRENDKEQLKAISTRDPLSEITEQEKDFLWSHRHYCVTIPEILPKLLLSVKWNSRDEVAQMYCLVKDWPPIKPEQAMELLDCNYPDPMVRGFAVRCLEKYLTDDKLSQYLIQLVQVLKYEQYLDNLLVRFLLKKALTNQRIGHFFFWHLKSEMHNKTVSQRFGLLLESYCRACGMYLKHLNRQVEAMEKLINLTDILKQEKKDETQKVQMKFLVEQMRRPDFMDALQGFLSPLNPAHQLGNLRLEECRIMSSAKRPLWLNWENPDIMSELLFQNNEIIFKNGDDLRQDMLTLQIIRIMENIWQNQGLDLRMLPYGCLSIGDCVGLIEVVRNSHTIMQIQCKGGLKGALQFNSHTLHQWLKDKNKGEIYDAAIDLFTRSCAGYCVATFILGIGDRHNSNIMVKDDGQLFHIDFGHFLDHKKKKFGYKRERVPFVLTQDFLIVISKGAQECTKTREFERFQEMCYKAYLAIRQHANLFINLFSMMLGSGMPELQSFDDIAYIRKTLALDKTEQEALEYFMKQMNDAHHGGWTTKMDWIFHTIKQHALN
Sequence of PI3K alpha (P27986 whole entry partner, species assumed): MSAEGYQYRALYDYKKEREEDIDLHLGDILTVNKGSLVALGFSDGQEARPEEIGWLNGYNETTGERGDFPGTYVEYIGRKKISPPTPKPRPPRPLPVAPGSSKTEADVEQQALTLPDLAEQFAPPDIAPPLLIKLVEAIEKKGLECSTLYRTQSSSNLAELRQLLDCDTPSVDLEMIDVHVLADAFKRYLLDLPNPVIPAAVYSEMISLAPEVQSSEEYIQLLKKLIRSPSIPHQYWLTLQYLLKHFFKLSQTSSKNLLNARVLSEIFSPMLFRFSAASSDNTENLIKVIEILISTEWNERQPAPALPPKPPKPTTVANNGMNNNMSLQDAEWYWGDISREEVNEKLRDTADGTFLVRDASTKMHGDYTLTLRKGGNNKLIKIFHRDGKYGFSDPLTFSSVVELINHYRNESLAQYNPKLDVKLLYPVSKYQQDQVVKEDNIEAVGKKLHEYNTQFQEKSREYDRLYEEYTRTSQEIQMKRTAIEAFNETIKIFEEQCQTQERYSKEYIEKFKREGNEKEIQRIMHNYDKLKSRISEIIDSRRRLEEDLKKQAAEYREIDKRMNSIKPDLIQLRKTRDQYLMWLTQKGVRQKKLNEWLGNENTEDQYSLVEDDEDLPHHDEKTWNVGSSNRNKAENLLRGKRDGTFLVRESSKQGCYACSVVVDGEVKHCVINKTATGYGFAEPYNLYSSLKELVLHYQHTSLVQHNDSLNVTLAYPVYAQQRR

COc1ccc(NC2CCN(c3nc(N4CCOCC4)nc(-n4c(C(F)F)nc5ccccc54)n3)CC2)cc1 [1B24, 1-(4-(2-(difluoromethyl)-1H-benzo[d]imidazol-1-yl)-6-morpholino-1,3,5-triazin-2-yl)-N-(4-methoxyphenyl)piperidin-4-amine]
inhibition at 0.5 µM (PI3K alpha; [1]): > 70% | inhibition at 0.5 µM (PI3K alpha; [2]): > 70% | inhibition at 10 µM (MDA-MB231 Cell line): 30 to 50%

FC(F)c1nc2ccccc2n1-c1nc(N2CCOCC2)nc(N2CCC(Nc3ccc(Br)cc3)CC2)n1 [1B25, N-(4-bromophenyl)-1-(4-(2-(difluoromethyl)-1H-benzo[d]imidazol-1-yl)-6-morpholino-1,3,5-triazin-2-yl)piperidin-4-amine]
inhibition at 0.5 µM (PI3K alpha; [1]): > 70% | inhibition at 0.5 µM (PI3K alpha; [2]): > 70% | inhibition at 10 µM (MCF-7 Cell line): > 50% | inhibition at 10 µM (PC-3 Cell line): 30 to 50%

FC(F)(F)c1ccc(NC2CCN(c3nc(N4CCOCC4)nc(-n4cnc5ccccc54)n3)CC2)cc1 [1B35, 1-(4-(1H-benzo[d]imidazol-1-yl)-6-morpholino-1,3,5-triazin-2-yl)-N-(4-(trifluoromethyl)phenyl)piperidin-4-amine]
inhibition at 0.5 µM (PI3K alpha; [1]): 50 to 70%

Fc1ccc(NC2CCN(c3nc(N4CCOCC4)nc(-n4c(C(F)F)cc5ccccc54)n3)CC2)cc1 [1B46, 1-(4-(2-(difluoromethyl)-1H-indol-1-yl)-6-morpholino-1,3,5-triazin-2-yl)-N-(4-fluorophenyl)piperidin-4-amine]
inhibition at 0.5 µM (PI3K alpha; [1]): 50 to 70%

COc1ccccc1NC1CCN(c2nc(N3CCOCC3)nc(-n3c(C(F)F)nc4ccccc43)n2)CC1 [1B28, 1-(4-(2-(difluoromethyl)-1H-benzo[d]imidazol-1-yl)-6-morpholino-1,3,5-triazin-2-yl)-N-(2-methoxyphenyl)piperidin-4-amine]
inhibition at 0.5 µM (PI3K alpha; [1]): > 70% | inhibition at 0.5 µM (PI3K alpha; [2]): > 70% | inhibition at 10 µM (MCF-7 Cell line): > 50% | inhibition at 10 µM (PC-3 Cell line): 30 to 50%

O=C(N(c1ccccc1)c1nc(N2CCOCC2)nc(N2CCC(Oc3ccccc3)CC2)n1)C(F)(F)F [1A4, 2,2,2-trifluoro-N-(4-morpholino-6-(4-phenoxypiperidin-1-yl)-1,3,5-triazin-2-yl)-N-phenylacetamide]
inhibition at 0.5 µM (PI3K alpha; [1]): 50 to 70%

FC(F)c1cc2ccccc2n1-c1nc(N2CCOCC2)nc(N2CCC(Nc3ccc(C(F)(F)F)cc3)CC2)n1 [1B49, 1-(4-(2-(difluoromethyl)-1H-indol-1-yl)-6-morpholino-1,3,5-triazin-2-yl)-N-(4-(trifluoromethyl)phenyl)piperidin-4-amine]
inhibition at 0.5 µM (PI3K alpha; [1]): > 70% | inhibition at 0.5 µM (PI3K alpha; [2]): > 70%

O=C(N(C(=O)C(F)(F)F)c1nc(N2CCOCC2)nc(N2CCC(Oc3ccc(F)cc3)CC2)n1)C(F)(F)F [1A13, 2,2,2-trifluoro-N-(4-(4-(4-fluorophenoxy)piperidin-1-yl)-6-morpholino-1,3,5-triazin-2-yl)-N-(2,2,2-trifluoroacetyl)acetamide]
inhibition at 0.5 µM (PI3K alpha; [1]): 50 to 70%

FC(F)c1nc2ccccc2n1-c1nc(N2CCOCC2)nc(N2CCC(Oc3cccc(Cl)c3)CC2)n1 [1B6, 4-(4-(4-(3-chlorophenoxy)piperidin-1-yl)-6-(2-(difluoromethyl)-1H-benzo[d]imidazol-1-yl)-1,3,5-triazin-2-yl)morpholine]
inhibition at 0.5 µM (PI3K alpha; [1]): 50 to 70% | inhibition at 10 µM (MCF-7 Cell line): > 50% | inhibition at 10 µM (PC-3 Cell line): 30 to 50%

Fc1ccc(N(c2ccncc2C(F)(F)F)C2CCN(c3nc(N4CCOCC4)nc(-n4c(C(F)F)nc5ccccc54)n3)CC2)cc1 [1B45, N-(1-(4-(2-(difluoromethyl)-1H-benzo[d]imidazol-1-yl)-6-morpholino-1,3,5-triazin-2-yl)piperidin-4-yl)-N-(4-fluorophenyl)-3-(trifluoromethyl)pyridin-4-amine]
inhibition at 0.5 µM (PI3K alpha; [1]): 50 to 70%

Fc1ccc(NC2CCN(c3nc(N4CCOCC4)nc(-n4c(C(F)F)nc5ccccc54)n3)CC2)cc1 [1B21, 1-(4-(2-(difluoromethyl)-1H-benzo[d]imidazol-1-yl)-6-morpholino-1,3,5-triazin-2-yl)-N-(4-fluorophenyl)piperidin-4-amine]
inhibition at 0.5 µM (PI3K alpha; [1]): 50 to 70%

FC(F)c1cc2ccccc2n1-c1nc(N2CCOCC2)nc(N2CCC(Nc3ccc(Cl)cc3)CC2)n1 [1B50, N-(4-chlorophenyl)-1-(4-(2-(difluoromethyl)-1H-indol-1-yl)-6-morpholino-1,3,5-triazin-2-yl)piperidin-4-amine]
inhibition at 0.5 µM (PI3K alpha; [1]): 50 to 70%

Fc1ccccc1NC1CCN(c2nc(N3CCOCC3)nc(-n3cnc4ccccc43)n2)CC1 [1B38, 1-(4-(1H-benzo[d]imidazol-1-yl)-6-morpholino-1,3,5-triazin-2-yl)-N-(2-fluorophenyl)piperidin-4-amine]
inhibition at 0.5 µM (PI3K alpha; [1]): 50 to 70%

COc1cccc(NC2CCN(c3nc(N4CCOCC4)nc(-n4c(C(F)F)nc5ccccc54)n3)CC2)c1 [1B31, 1-(4-(2-(difluoromethyl)-1H-benzo[d]imidazol-1-yl)-6-morpholino-1,3,5-triazin-2-yl)-N-(3-methoxyphenyl)piperidin-4-amine]
inhibition at 0.5 µM (PI3K alpha; [1]): > 70% | inhibition at 0.5 µM (PI3K alpha; [2]): > 70%

FC(F)c1nc2ccccc2n1-c1nc(N2CCOCC2)nc(N2CCC(Nc3ccccc3C(F)(F)F)CC2)n1 [1B29, 1-(4-(2-(difluoromethyl)-1H-benzo[d]imidazol-1-yl)-6-morpholino-1,3,5-triazin-2-yl)-N-(2-(trifluoromethyl)phenyl)piperidin-4-amine]
inhibition at 0.5 µM (PI3K alpha; [1]): 50 to 70%

FC(F)(F)c1ccccc1OC1CCN(c2nc(N3CCOCC3)nc(-n3cnc4ccccc43)n2)CC1 [1B20, 4-(4-(1H-benzo[d]imidazol-1-yl)-6-(4-(2-(trifluoromethyl)phenoxy)piperidin-1-yl)-1,3,5-triazin-2-yl)morpholine]
inhibition at 0.5 µM (PI3K alpha; [1]): 50 to 70%

Cc1ccc(OC2CCN(c3nc(N4CCOCC4)nc(N(C(=O)C(F)(F)F)c4ccccc4)n3)CC2)cc1 [1A8, 2,2,2-trifluoro-N-(4-morpholino-6-(4-(p-tolyloxy)piperidin-1-yl)-1,3,5-triazin-2-yl)-N-phenylacetamide]
inhibition at 0.5 µM (PI3K alpha; [1]): > 70% | inhibition at 0.5 µM (PI3K alpha; [2]): > 70%

FC(F)(F)Oc1ccc(OC2CCN(c3nc(N4CCOCC4)nc(-n4cnc5ccccc54)n3)CC2)cc1 [1B16, 4-(4-(1H-benzo[d]imidazol-1-yl)-6-(4-(4-(trifluoromethoxy)phenoxy)piperidin-1-yl)-1,3,5-triazin-2-yl)morpholine]
inhibition at 0.5 µM (PI3K alpha; [1]): 50 to 70%

FC(F)c1cc2ccccc2n1-c1nc(N2CCOCC2)nc(N2CCC(Nc3ccc(OC(F)(F)F)cc3)CC2)n1 [1B48, 1-(4-(2-(difluoromethyl)-1H-indol-1-yl)-6-morpholino-1,3,5-triazin-2-yl)-N-(4-(trifluoromethoxy)phenyl)piperidin-4-amine]
inhibition at 0.5 µM (PI3K alpha; [1]): 50 to 70%

FC(F)c1nc2ccccc2n1-c1nc(N2CCOCC2)nc(N2CCC(Nc3ccc(OC(F)(F)F)cc3)CC2)n1 [1B23, 1-(4-(2-(difluoromethyl)-1H-benzo[d]imidazol-1-yl)-6-morpholino-1,3,5-triazin-2-yl)-N-(4-(trifluoromethoxy)phenyl)piperidin-4-amine]
inhibition at 0.5 µM (PI3K alpha; [1]): > 70% | inhibition at 0.5 µM (PI3K alpha; [2]): > 70% | inhibition at 10 µM (MCF-7 Cell line): 30 to 50% | inhibition at 10 µM (PC-3 Cell line): 30 to 50%

FC(F)c1nc2ccccc2n1-c1nc(N2CCOCC2)nc(N2CCC(Nc3ccc(C(F)(F)F)cc3)CC2)n1 [1B22, 1-(4-(2-(difluoromethyl)-1H-benzo[d]imidazol-1-yl)-6-morpholino-1,3,5-triazin-2-yl)-N-(4-(trifluoromethyl)phenyl)piperidin-4-amine]
inhibition at 0.5 µM (PI3K alpha; [1]): 50 to 70% | inhibition at 10 µM (MCF-7 Cell line): 30 to 50% | inhibition at 10 µM (PC-3 Cell line): 30 to 50%
